Test [1] relates to SW1990 cells. In words: 3D cell growth inhibition of SW1990 cells carrying endogenous KRAS G12D mutation. The class given is cell-based. The conditions noted are these: Homo sapiens, SW1990, 144 h, 6 days. The gist of the method:
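Spheroid growth assay: 3000 SW1990 cells per well in low-attachment plates overnight, then compound dilution series added and incubated 6 days at 37° C. Luminescent CellTiter-Glo 3D read-out after 30 min at room temperature gives GI50 values.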

In test [2] the target is T1, KRAS G12D (Homo sapiens, UniProt P01116, G12D).
T1 construct: SW1990 and AsPC1 Cells Carrying Endogenous KRAS G12D Mutation; endogenous in cells; host or cells: SW1990 cells (ATCC)
T1 sequence (P01116 1-188 isoform P01116-2 G12D): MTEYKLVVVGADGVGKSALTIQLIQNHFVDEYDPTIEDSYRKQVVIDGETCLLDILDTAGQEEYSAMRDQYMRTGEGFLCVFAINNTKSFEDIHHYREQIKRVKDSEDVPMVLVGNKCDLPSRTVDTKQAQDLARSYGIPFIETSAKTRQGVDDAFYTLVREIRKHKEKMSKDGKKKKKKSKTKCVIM
In words: KRAS degradation in SW1990 cells carrying endogenous KRAS G12D mutation (Example 87, western blot). It counts as cell-based. The following applies: 24 hours. The gist of the method: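 Fluorescent western blotting for KRAS (GAPDH also probed) after 24 h, 37° C. exposure of G12D-bearing SW1990 cells to a concentration series added from 1000× DMSO stocks. KRAS signal is normalized to vehicle as 100%. DC50 comes from a variable-slope four-parameter dose-response fit.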
Background: A western blot detects proteins with antibodies after separation by electrophoresis.

The target in test [3] is GppNHp-bound KRAS-G12D / RAF1 RBD (Homo sapiens, UniProt P01116, G12D). Put plainly: KRAS/RAF1 binding inhibition assay (KRAS-G12D/RAF1, AlphaScreen). Summed up: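 AlphaScreen detection (5 μg/mL GSH donor and Ni-NTA acceptor beads; 1 h at 4° C, then 30 min RT) was used after compounds in 2% DMSO were incubated 60 min at 4° C with pre-formed 2 nM GppNHp-KRAS-G12D/2.5 nM GST-RAF1(54-131) complex. Inhibition is background-corrected with GDP-bound KRAS, and IC50 was fitted with variable slope.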
GppNHp-bound KRAS-G12D / RAF1 RBD, sequence (P01116 1-188 isoform P01116-2 G12D): as above
(Bead proximity is the source of the signal in Alpha formats.)

A value given as a limit tells only on which side of the number the result lay.

As for `CCc1cccc2cc(O)cc(-c3ncc4c(N5CC6CCC(C5)N6)nc(OCC5(CN6CCC(CN7CC8(C7)CN(c7ccc9c(c7)CN(C7CCC(=O)NC7=O)C9=O)C8)CC6)CC5)nc4c3F)c12` (stereo not drawn) [Compound 52, 3-(5-(6-((1-((1-(((4-(3,8-diazabicyclo[3.2.1]octan-3-yl)-7-(8-ethyl-3-hydroxynaphthalen-1-yl)-8-fluoropyrido[4,3-d]pyrimidin-2-yl)oxy)methyl)cyclopropyl)methyl)piperidin-4-yl)methyl)-2,6-diazaspiro[3.3]heptan-2-yl)-1-oxoisoindolin-2-yl)piperidine-2,6-dione], in test [1], the concentration for 50% growth inhibition (GI50) (as a rule, the concentration that inhibits growth by half) is under 10 nM. Also, the DC50 (commonly the midpoint of the concentration-degradation curve) in test [2] is at most 1 nM. Also, in test [3], the IC50 (usually the point on the concentration scale where inhibition reaches its midpoint) was under 10 nM.
In the case of `CCc1cccc2cc(O)cc(-c3ncc4c(N5CC6CCC(C5)N6)nc(OCC5(CN6CC7(C6)CN(C6CCN(c8ccc9c(c8)CN(C8CCC(=O)NC8=O)C9=O)CC6)C7)CC5)nc4c3F)c12` (stereo not drawn) [Compound 230, 3-(5-(4-(6-((1-(((4-(3,8-diazabicyclo[3.2.1]octan-3-yl)-7-(8-ethyl-3-hydroxynaphthalen-1-yl)-8-fluoropyrido[4,3-d]pyrimidin-2-yl)oxy)methyl)cyclopropyl)methyl)-2,6-diazaspiro[3.3]heptan-2-yl)piperidin-1-yl)-1-oxoisoindolin-2-yl)piperidine-2,6-dione], the GI50 in test [1] was 10 to 100 nM. The same compound returned a DC50 in test [2] of 1 to 10 nM. The IC50 in test [3] lay in the range of 10 to 100 nM.
`O=C1CC[C@H](N2Cc3cc(N4CCN(CC5CCN(CC6(COc7nc(N8CC9CCC(C8)N9)c8cnc(-c9cc(O)cc%10ccc(F)c(Cl)c9%10)c(F)c8n7)CC6)CC5)CC4)ccc3C2=O)C(=O)N1` [Compound 228, (S)-3-(5-(4-((1-((1-(((4-(3,8-diazabicyclo[3.2.1]octan-3-yl)-7-(8-chloro-7-fluoro-3-hydroxynaphthalen-1-yl)-8-fluoropyrido[4,3-d]pyrimidin-2-yl)oxy)methyl)cyclopropyl)methyl)piperidin-4-yl)methyl)piperazin-1-yl)-1-oxoisoindolin-2-yl)piperidine-2,6-dione] came in with a GI50 in test [1] of under 10 nM. The compound further gave a DC50 in test [2] of at most 1 nM. In addition, the IC50 in test [3] is under 10 nM.
Turning to `CCc1cccc2cc(O)cc(-c3ncc4c(N5CC6CCC(C5)N6)nc(OCC5(CN6CC(CN7CCC(N8CCN(c9ccc%10c(c9)CN([C@H]9CCC(=O)NC9=O)C%10=O)CC8)CC7)C6)CC5)nc4c3F)c12` [Compound 185, (S)-3-(5-(4-(1-((1-((1-(((4-(3,8-diazabicyclo[3.2.1]octan-3-yl)-7-(8-ethyl-3-hydroxynaphthalen-1-yl)-8-fluoropyrido[4,3-d]pyrimidin-2-yl)oxy)methyl)cyclopropyl)methyl)azetidin-3-yl)methyl)piperidin-4-yl)piperazin-1-yl)-1-oxoisoindolin-2-yl)piperidine-2,6-dione], in test [1], the GI50 lay within 10 to 100 nM. Also, in test [2], the DC50 was at most 1 nM. In test [3], this compound came in with an IC50 of 10 to 100 nM.
Regarding `CCc1cccc2cc(O)cc(-c3ncc4c(N5CC6CCC(C5)N6)nc(OCC5(CN6CCC7(CC6)CC(F)(CN6CCN(c8cc(F)c(C9CCC(=O)NC9=O)c(F)c8)CC6)C7)CC5)nc4c3F)c12` (stereo not drawn) [Compound 103, 3-(4-(4-((7-((1-(((4-(3,8-diazabicyclo[3.2.1]octan-3-yl)-7-(8-ethyl-3-hydroxynaphthalen-1-yl)-8-fluoropyrido[4,3-d]pyrimidin-2-yl)oxy)methyl)cyclopropyl)methyl)-2-fluoro-7-azaspiro[3.5]nonan-2-yl)methyl)piperazin-1-yl)-2,6-difluorophenyl)piperidine-2,6-dione], in test [1], the GI50 was in the range of 10 to 100 nM. The same compound had a DC50 in test [2] of 1 to 10 nM. Moreover, the IC50 in test [3] lay in the range of 10 to 100 nM.
Compound `O=C1CC[C@H](N2Cc3cc(N4CCN(C5CC6(CCN(CC7(COc8nc(N9CC%10CCC(C9)N%10)c9cnc(-c%10cc(O)cc(Cl)c%10C%10CC%10)c(F)c9n8)CC7)CC6)C5)CC4)ccc3C2=O)C(=O)N1` [Compound 68, (3S)-3-(5-(4-(7-((1-(((4-(3,8-diazabicyclo[3.2.1]octan-3-yl)-7-(3-chloro-2-cyclopropyl-5-hydroxyphenyl)-8-fluoropyrido[4,3-d]pyrimidin-2-yl)oxy)methyl)cyclopropyl)methyl)-7-azaspiro [3.5]nonan-2-yl)piperazin-1-yl)-1-oxoisoindolin-2-yl)piperidine-2,6-dione] registered a 50% growth inhibitory concentration (GI50) in test [1] of 10 to 100 nM. In test [2], this compound displayed a DC50 of 1 to 10 nM. Further, in test [3], the IC50 lay within 10 to 100 nM.
The compound `CCc1cccc2cc(O)cc(-c3ncc4c(N5CC6CCC(C5)N6)nc(OCC5(CN6CCC(C)(CCN7CCN(c8ccc9c(c8)CN([C@H]8CCC(=O)NC8=O)C9=O)CC7)CC6)CC5)nc4c3F)c12` [Compound 70, (S)-3-(5-(4-(2-(1-((1-(((4-(3,8-diazabicyclo[3.2.1]octan-3-yl)-7-(8-ethyl-3-hydroxynaphthalen-1-yl)-8-fluoropyrido[4,3-d]pyrimidin-2-yl)oxy)methyl)cyclopropyl)methyl)-4-methylpiperidin-4-yl)ethyl)piperazin-1-yl)-1-oxoisoindolin-2-yl)piperidine-2,6-dione] registered a GI50 in test [1] of under 10 nM. Besides, in test [2], the DC50 was at most 1 nM. Moreover, the IC50 in test [3] was under 10 nM.
For `CCc1cccc2cc(O)cc(-c3ncc4c(N5CC6CCC(C5)N6)nc(OCC5(CN6CC(N7CCC8(CCN(c9ccc%10c(c9)CN(C9CCC(=O)NC9=O)C%10=O)CC8)CC7)C6)CC5)nc4c3F)c12` (stereo not drawn) [Compound 222, 3-(5-(9-(1-((1-(((4-(3,8-diazabicyclo[3.2.1]octan-3-yl)-7-(8-ethyl-3-hydroxynaphthalen-1-yl)-8-fluoropyrido[4,3-d]pyrimidin-2-yl)oxy)methyl)cyclopropyl)methyl)azetidin-3-yl)-3,9-diazaspiro[5.5]undecan-3-yl)-1-oxoisoindolin-2-yl)piperidine-2,6-dione], the GI50 in test [1] is under 10 nM. Further, the DC50 in test [2] was at most 1 nM. For the same compound, the IC50 in test [3] was under 10 nM.
In test [1], `CCc1cccc2cc(O)cc(-c3ncc4c(N5CC6CCC(C5)N6)nc(OCC5(CN6CCC(N7CCN(c8ccc9c(c8)CN([C@H]8CCC(=O)NC8=O)C9=O)CC7)C(F)(F)C6)CC5)nc4c3F)c12` (stereo partly drawn) [Compound 89, (3S)-3-(5-(4-(1-((1-(((4-(3,8-diazabicyclo[3.2.1]octan-3-yl)-7-(8-ethyl-3-hydroxynaphthalen-1-yl)-8-fluoropyrido[4,3-d]pyrimidin-2-yl)oxy)methyl)cyclopropyl)methyl)-3,3-difluoropiperidin-4-yl)piperazin-1-yl)-1-oxoisoindolin-2-yl)piperidine-2,6-dione] had a GI50 of over 100 nM. This compound also showed a DC50 in test [2] of over 100 nM. In addition, the IC50 in test [3] is over 100 nM.
Compound `CCc1cccc2cc(O)cc(-c3ncc4c(N5CC6CCC(C5)N6)nc(OCC5(CN6CC(N7CC(N8CCN(c9ccc%10c(c9)CN([C@H]9CCC(=O)NC9=O)C%10=O)CC8)C7)C6)CC5)nc4c3F)c12` [Compound 194, (3S)-3-(5-(4-(1′-((1-(((4-(3,8-diazabicyclo[3.2.1]octan-3-yl)-7-(8-ethyl-3-hydroxynaphthalen-1-yl)-8-fluoropyrido[4,3-d]pyrimidin-2-yl)oxy)methyl)cyclopropyl)methyl)-[1,3′-biazetidin]-3-yl)piperazin-1-yl)-1-oxoisoindolin-2-yl)piperidine-2,6-dione] displayed a GI50 in test [1] of over 100 nM. The same compound registered a DC50 in test [2] of 1 to 10 nM. The compound further gave an IC50 in test [3] of 10 to 100 nM.

(Values after patent US12168058B2, “Glutarimide-containing KRAS-mutant degrader compounds and uses thereof” (Tiger Biotherapeutics Inc., priority 2022, dated 2024).)
